The text below walks through data of article PMC2500149 (International Journal of Medical Sciences, 2008).

For data set [1] the following is noted: statement of the introduction; cited from earlier work.
The nature of data set [2]: Solubility of the peptides in water and TFE/water. It counts as physicochemical.
The nature of data set [3]: Far UV circular dichroism, TFE polarity titration. Type of data set: physicochemical. To be noted: aqueous solution, 10% TFE, 100 µg/ml. For orientation: Circular dichroism is the unequal absorption of left and right circularly polarised light.
A further data set concerns cells. To be noted: free peptide without transporter; stated, no experiment described; cited from earlier work.

`Cc1ccc(NC(=O)NCCSCc2ccc(CN(C)C)o2)cc1Cl` [CAP-1]: in data set [1], the water solubility entry is on record as “limited water solubility”.

Turning to `C=C(C)[C@@H]1CC[C@]2(C(=O)O)CC[C@]3(C)[C@H](CC[C@@H]4[C@@]5(C)CC[C@H](OC(=O)CC(C)(C)C(=O)O)C(C)(C)[C@@H]5CC[C@]43C)[C@@H]12` [PA-457], the water solubility entry in data set [1] is “limited water solubility”. ITFEDLLDYYGP [CAI(Pep1)]: the water solubility result in data set [1] is on record as “limited water solubility”.

Regarding ITFEDLLDYYGPKC [CAI-peptide], in data set [2], the “water solubility (in words)” value is “water insoluble”. Also, the “aggregation (inferred from poor water solubility and β-structure in CD)” value in data set [3] is “oligomeric aggregates are formed”. For the same molecule, the “direct cell permeation / transfer across biomembranes” value with cells is on record as “cannot permeate cells directly”.
